Laboratory results taken from PMC9503977, “Isolation, Characterization and Pharmacological Investigations of a New Phenolic Compound along with Four Others Firstly Reported Phytochemicals from Glycosmis cyanocarpa (Blume) Spreng” (Molecules, 2022).
In brackets after ≈: the same amount, converted by molar mass. Entries after “also recorded” stand apart in the source; their conditions may differ.

Key:
Klebsiella spp. = assay: Disc diffusion antibacterial assay; details: read-out: Diameter of Zone of Inhibition
Staphylococcus aureus = assay: Disc diffusion antibacterial assay; details: read-out: Diameter of Zone of Inhibition
Escherichia coli = assay: Disc diffusion antibacterial assay; details: read-out: Diameter of Zone of Inhibition
Shigella flexneri = assay: microbe, parasite or virus in culture; details: read-out: Diameter of Zone of Inhibition
Salmonella typhi = assay: Disc diffusion antibacterial assay; assay type: cell-based; details: Salmonella enterica, read-out: Diameter of Zone of Inhibition
Sarcina lutea = assay: Disc diffusion antibacterial assay; details: Micrococcus luteus, read-out: Diameter of Zone of Inhibition
[1] = DPPH free radical scavenging assay; assay type: biochemical; details: for DPPH scavenging activity: at 200 μg/mL; for IC50, DPPH free radical scavenging: from linear regression equation, 200 to 0.78125 μg/mL, 1 h in dark
Procedure: To evaluate the free radical scavenging abilities of isolated phytochemicals on 1, 1-diphenyl-2-picrylhydrazyl, 2.0 mL of methanol solution of the compounds at serially diluted various concentrations (200 μg/mL to 0.78125 μg/mL) were mixed with 3.0 mL of a DPPH methanol solution (20 μg/mL) (DPPH). The mixture was kept in dark for 1 h. The antioxidant properties were assessed by comparing the decolorizing of a purple DPPH methanol solution by the compounds to that of butylated hydroxy anisole (BHA). (1) % Inhibition of free radical DPPH=1−Absorbance ofsample/Absorbance of the control reaction×100

[2] = Brine shrimp lethality bioassay (cytotoxicity); details: in vivo, other: exposure of nauplii in simulated seawater, pH 8, from linear regression, 400–0.78125 μg/mL
Procedure: The brine shrimp lethality bioassay was conducted to evaluate the cytotoxic potential of the isolated pure compounds. An amount of 38 g of NaCl salt was dissolved in 1000 mL of distilled water to simulate seawater, along with NaOH to keep the pH constant (8.0). Brine shrimp eggs were hatched in artificial seawater to produce nauplii. Isolated compounds were dissolved in DMSO then diluted with simulated seawater into a series of concentrations (400–0.78125 μg/mL). As the reference standard, vincristine sulfate was employed at various doses (400–0.78125 μg/mL), and DMSO served as the negative control. The nauplii were counted visually, and then 5 mL of simulated saltwater was added to vials of the mixture at room temperature. (2) Mortality%=Number of nauplii death/Number of nauplii taken×100

[3] = system: two Gram-positive and four Gram-negative bacteria; assay: Disc diffusion antibacterial assay, whole panel; assay type: cell-based; details: 100 μg/disc

| SMILES | zone of inhibition at 100 µg/disc (Klebsiella spp.) [mm] | zone of inhibition at 100 µg/disc (Staphylococcus aureus) [mm] | zone of inhibition at 100 µg/disc (Escherichia coli) [mm] | zone of inhibition at 100 µg/disc (Shigella flexneri) [mm] | zone of inhibition at 100 µg/disc (Salmonella typhi) [mm] | zone of inhibition at 100 µg/disc (Sarcina lutea) [mm] | DPPH scavenging activity [1] [%] | IC50, DPPH free radical scavenging [1] [µg/mL] | LC50 [2] [µg/mL] | antibacterial spectrum (in words) [3] |
| --- | --- | --- | --- | --- | --- | --- | --- | --- | --- | --- |
| CC[C@H]1OC(=O)[C@H](C)[C@@H](O[C@H]2C[C@@](C)(OC)[C@@H](O)[C@H](C)O2)[C@H](C)[C@@H](O[C@@H]2O[C@H](C)C[C@H](N(C)C)[C@H]2O)[C@](C)(O)C[C@@H](C)CN(C)[C@H](C)[C@@H](O)[C@]1(C)O [Azithromycin] | 37 | 39 | 40 | 41 | 34 | 40 |  |  |  |  |
| Cc1cc(C(C)(C)C)c(O)c(C(C)(C)C)c1 [BHT, Butylated Hydroxytoluene] |  |  |  |  |  |  | 96.48 | 6.06 (≈ 27.5 µM) |  |  |
| COc1cc(CC(C)CO)ccc1O (stereo not drawn) [Compound 1, 4-(3-hydroxy-2-methylpropyl)-2-methoxyphenol] |  | 21 | 19 |  | 18 | 20 | 92.96 | 9.97 (≈ 50.8 µM) | 1.08 (≈ 5.5 µM) | broad-spectrum antibacterial activity |
| Cc1c[nH]c2ccccc12 [Compound 2, 3-methyl-1H-indole] |  | 17 |  |  |  | 19 |  | 12.37 (≈ 94.3 µM) | 1.02 (≈ 7.78 µM) | the most active against Staphylococcus aureus; also recorded: inhibited only Gram-positive bacteria |
| CC[C@H](/C=C/[C@@H](C)[C@H]1CC[C@H]2[C@@H]3CC=C4C[C@@H](O)CC[C@]4(C)[C@H]3CC[C@]12C)C(C)C [Compound 4, Stigmasterol] |  | 16 |  |  |  | 17 |  |  | 1.92 (≈ 4.65 µM) | inhibited only Gram-positive bacteria |
| CC[C@H](CC[C@@H](C)[C@H]1CC[C@H]2[C@@H]3CC=C4C[C@@H](O)CC[C@]4(C)[C@H]3CC[C@]12C)C(C)C [Compound 5, β-sitosterol] |  | 17 |  |  |  | 15 |  |  | 1.37 (≈ 3.3 µM) | inhibited only Gram-positive bacteria |
| C[C@H]1COc2c(N3CCN(C)CC3)c(F)cc3c(=O)c(C(=O)O)cn1c23 [Levofloxacin] | 38 | 40 | 42 | 41 | 36 | 39 |  |  |  |  |
| CN(C)[C@@H]1C(O)=C(C(N)=O)C(=O)[C@@]2(O)C(O)=C3C(=O)c4c(O)cccc4[C@@](C)(O)[C@H]3C[C@@H]12 [Tetracycline] | 39 | 37 | 41 | 38 | 41 | 38 |  |  |  |  |
| CC[C@]1(O)C[C@H]2CN(CCc3c([nH]c4ccccc34)[C@@](C(=O)OC)(c3cc4c(cc3OC)N(C=O)[C@H]3[C@@](O)(C(=O)OC)[C@H](OC(C)=O)[C@]5(CC)C=CCN6CC[C@]43[C@@H]65)C2)C1 [VS, Vincristine Sulphate] |  |  |  |  |  |  |  |  | 0.91 |  |
| CN[C@H](CC(C)C)C(=O)N[C@H]1C(=O)N[C@@H](CC(N)=O)C(=O)N[C@H]2C(=O)N[C@H]3C(=O)N[C@H](C(=O)N[C@H](C(=O)O)c4cc(O)cc(O)c4-c4cc3ccc4O)[C@H](O)c3ccc(c(Cl)c3)Oc3cc2cc(c3O[C@@H]2O[C@H](CO)[C@@H](O)[C@H](O)[C@H]2O[C@H]2C[C@](C)(N)[C@H](O)[C@H](C)O2)Oc2ccc(cc2Cl)[C@H]1O [Vancomycin] | 43 | 41 | 42 | 38 | 39 | 42 |  |  |  |  |
